Experimental data from EP4707392A1, “DOUBLE-STRANDED OLIGONUCLEOTIDE, CONJUGATE THEREOF, AND USE THEREOF” (priority 2023, dated 2024).

Tested on: coagulation factor XI (Factor XI, FXI) mRNA
Assay: In vitro inhibitory activity of siRNA conjugates modified with TOM against FXI mRNA, free uptake by mouse primary hepatocytes (Example 6)
Format: cell-based
Conditions: not given
Description: The inhibitory activities of the siRNA conjugates modified with TOM at different sites of an antisense strand against a target gene FXI in mouse primary hepatocytes were evaluated by the same experimental method as that in Example 4. Differences lie in that the siRNA conjugates modified with TOM at different sites of an antisense strand were used in the present example to replace the siRNA conjugates used in Example 4, and that target gene FXI detection primers listed in Table 13 were used in the present example to replace target gene detection primers used in Example 4. Relative quantitative calculation was performed for the target gene mRNA in various test groups by the preceding ΔΔCt method.

Row | Substance | in vitro activity compared with the reference sequence (RZ594001) without TOM modification
1 | RZ594004: siRNA conjugate, SEQ ID NOs 341/342 (chain 1 GUACGUGGACUGGAUUCUG; chain 2 CAGAATCCAGTCCACGTACTT; siRNA conjugate, conjugate and pattern not given here) | conducive to enhancing in vitro activity
2 | RZ594005: siRNA conjugate, SEQ ID NOs 343/344 (chain 1 GUACGUGGACUGGAUUCUG; chain 2 CAGAATCCAGTCCACGTACTT; siRNA conjugate, conjugate and pattern not given here) | conducive to enhancing in vitro activity
3 | RZ594006: siRNA conjugate, SEQ ID NOs 345/346 (chain 1 GUACGUGGACUGGAUUCUG; chain 2 CAGAATCCAGTCCACGTACTT; siRNA conjugate, conjugate and pattern not given here) | conducive to enhancing in vitro activity
4 | RZ594008: siRNA conjugate, SEQ ID NOs 293/294 (chain 1 GUACGUGGACUGGAUUCUG; chain 2 CAGAATCCAGTCCACGTACTT; siRNA conjugate, conjugate and pattern not given here) | significantly weakened the in vitro activity
5 | RZ594009: siRNA conjugate, SEQ ID NOs 295/296 (chain 1 GUACGUGGACUGGAUUCUG; chain 2 CAGAATCCAGTCCACGTACTT; siRNA conjugate, conjugate and pattern not given here) | significantly weakened the in vitro activity
6 | RZ594011: siRNA conjugate, SEQ ID NOs 299/300 (chain 1 GUACGUGGACUGGAUUCUG; chain 2 CAGAATCCAGTCCACGTACTT; siRNA conjugate, conjugate and pattern not given here) | conducive to enhancing in vitro activity
7 | RZ594012: siRNA conjugate, SEQ ID NOs 301/302 (chain 1 GUACGUGGACUGGAUUCUG; chain 2 CAGAATCCAGTCCACGTACTT; siRNA conjugate, conjugate and pattern not given here) | conducive to enhancing in vitro activity
8 | RZ594013: siRNA conjugate, SEQ ID NOs 303/304 (chain 1 GUACGUGGACUGGAUUCUG; chain 2 CAGAATCCAGTCCACGTACTT; siRNA conjugate, conjugate and pattern not given here) | significantly weakened the in vitro activity
9 | RZ594014: siRNA conjugate, SEQ ID NOs 305/306 (chain 1 GUACGUGGACUGGAUUCUG; chain 2 CAGAATCCAGTCCACGTACTT; siRNA conjugate, conjugate and pattern not given here) | significantly weakened the in vitro activity
10 | RZ594015: siRNA conjugate, SEQ ID NOs 307/308 (chain 1 GUACGUGGACUGGAUUCUG; chain 2 CAGAATCCAGTCCACGTACTT; siRNA conjugate, conjugate and pattern not given here) | significantly weakened the in vitro activity
11 | RZ594016: siRNA conjugate, SEQ ID NOs 309/310 (chain 1 GUACGUGGACUGGAUUCUG; chain 2 CAGAATCCAGTCCACGTACTT; siRNA conjugate, conjugate and pattern not given here) | significantly weakened the in vitro activity
12 | RZ594018: siRNA conjugate, SEQ ID NOs 313/314 (chain 1 GUACGUGGACUGGAUUCUG; chain 2 CAGAATCCAGTCCACGTACTT; siRNA conjugate, conjugate and pattern not given here) | conducive to enhancing in vitro activity
13 | RZ594019: siRNA conjugate, SEQ ID NOs 315/316 (chain 1 GUACGUGGACUGGAUUCUG; chain 2 CAGAATCCAGTCCACGTACTT; siRNA conjugate, conjugate and pattern not given here) | conducive to enhancing in vitro activity
14 | RZ594024: siRNA conjugate, SEQ ID NOs 325/326 (chain 1 GUACGUGGACUGGAUUCUG; chain 2 CAGAATCCAGTCCACGTACTT; siRNA conjugate, conjugate and pattern not given here) | conducive to enhancing in vitro activity
15 | RZ594025: siRNA conjugate, SEQ ID NOs 327/328 (chain 1 GUACGUGGACUGGAUUCUG; chain 2 CAGAATCCAGTCCACGTACTT; siRNA conjugate, conjugate and pattern not given here) | conducive to enhancing in vitro activity
16 | RZ594030: siRNA conjugate, SEQ ID NOs 347/348 (chain 1 GUACGUGGACUGGAUUCUG; chain 2 CAGAATCCAGTCCACGTACTT; siRNA conjugate, conjugate and pattern not given here) | conducive to enhancing in vitro activity
17 | RZ594035: siRNA conjugate, SEQ ID NOs 357/358 (chain 1 GUACGUGGACUGGAUUCUG; chain 2 CAGAATCCAGTCCACGTACTT; siRNA conjugate, conjugate and pattern not given here) | conducive to enhancing in vitro activity
18 | RZ594040: siRNA conjugate, SEQ ID NOs 367/368 (chain 1 GUACGUGGACUGGAUUCUG; chain 2 CAGAATCCAGTCCACGTACTT; siRNA conjugate, conjugate and pattern not given here) | conducive to enhancing in vitro activity
19 | RZ594041: siRNA conjugate, SEQ ID NOs 369/370 (chain 1 GUACGUGGACUGGAUUCUG; chain 2 CAGAATCCAGTCCACGTACTT; siRNA conjugate, conjugate and pattern not given here) | conducive to enhancing in vitro activity

Tested on: CC3 mRNA
Assay: Inhibitory activity of siRNAs modified with MOE at different sites against CC3 mRNA in HepG2 cells (Example 8)
Format: cell-based, human
Conditions: MOE at a single site
Description: In vitro activities of siRNA compounds, such as RX502165 modified with MOE at different sites of a sense strand and RX502172 modified with MOE at different sites of an antisense strand, and a reference compound RX502001 without MOE modification on HepG2 cells were evaluated using the same experimental method as that in Example 2. A difference lies in that the siRNA compounds modified with MOE at different sites of the sense and antisense strands were used in the present example to replace the siRNA compounds used in Example 2. Relative quantitative calculation was performed for the target gene mRNA in various test groups by the preceding ΔΔCt method.

Row | Substance | in vitro activity compared with the reference sequence (RX502001) without MOE modification
20 | RZ594011: siRNA conjugate, SEQ ID NOs 299/300 (chain 1 GUACGUGGACUGGAUUCUG; chain 2 CAGAATCCAGTCCACGTACTT; siRNA conjugate, conjugate and pattern not given here) | conducive to elevating the in vitro activity
